In PubChem BioAssay AID1259408 (Genetic Toxicology Data Bank (GENE-TOX), 2018):
The source made the active and inactive calls. No rule for the calls is given here.

Tested on: GENE-TOX genotoxicity assays, various organisms and cells
Experiment: GENE-TOX mutagenicity studies
Conditions: for call: Assay Type: In vivo carcinogenicity studies
[1] = Species/Cell Type: Arabidopsis species, Assay Type: Gene mutation, Assay Code: ARM+, Evaluation Type: Evaluation A (Pre-1980)
[2] = Species/Cell Type: Saccharomyces cerevisiae, Assay Type: Reverse gene mutation, Assay Code: YER+, Evaluation Type: Evaluation A (Pre-1980)
[3] = Species/Cell Type: Nonhuman, Assay Code: CCG+, Evaluation Type: Evaluation A (Pre-1980)
[4] = Species/Cell Type: Escherichia coli polA (W3119 vs P3478), Assay Type: Rec-assay, DNA effects (bacterial DNA repair), Assay Code: RE1+, Evaluation Type: Evaluation A (Pre-1980)
[5] = Species/Cell Type: Salmonella typhimurium (one or more of the five standard strains: TA98, TA100, TA1535, TA1537, and TA1538), Assay Type: Histidine reverse gene mutation, Ames assay, Assay Code: SAL+, Evaluation Type: Evaluation A (Pre-1980)
[6] = Species/Cell Type: Salmonella typhimurium (one or more of the five standard strains: TA98, TA100, TA1535, TA1537, and TA1538), Assay Type: Histidine reverse gene mutation, Ames assay, Assay Code: SALT, Evaluation Type: Evaluation A (Pre-1980)
[7] = Species/Cell Type: Human lymphocytes, Assay Type: Sister-chromatid exchange (SCE) in vivo, Assay Code: SCY+, Evaluation Type: Evaluation B (Post-1980)
[8] = Species/Cell Type: Nonhuman, Assay Type: Sister-chromatid exchange (SCE) in vitro, Assay Code: SC2+, Evaluation Type: Evaluation B (Post-1980)
[9] = Species/Cell Type: Saccharomyces cerevisiae, Assay Type: Mitotic recombination or gene conversion, Assay Code: YEH-, Evaluation Type: Evaluation A (Pre-1980)

Compound: COc1cccc(C2CO2)c1 (configuration not stated)
- mutagenic call (Species/Cell Type: Escherichia coli WP2 UVRA, Assay Type: Tryptophan reverse gene mutation, Assay Code: WPU-, Evaluation Type: Evaluation A (Pre-1980)): inactive; negative

Compound: O=c1cc(O)c2ccccc2[nH]1
- mutagenic call (Species/Cell Type: Salmonella typhimurium (one or more of the five standard strains: TA98, TA100, TA1535, TA1537, and TA1538), Assay Type: Histidine reverse gene mutation, Ames assay, Assay Code: SAL+*, Activation: With metabolic activation, Evaluation Type: Evaluation A (Pre-1980)): active; positive

Compound: CN(N=O)C(=O)C(=O)N(C)N=O
- mutagenic call [1]: active; positive
- mutagenic call [2]: active; positive

Compound: Nc1cccc2c(N)cccc12
- call [3]: active; positive

Compound: Nc1ccc(Oc2ccc(N)c(Cl)c2)cc1Cl
- call [3]: active; positive

Compound: CC1=NN(c2ccc([N+](=O)[O-])cc2)C(=O)C1[N+](=O)[O-] (configuration not stated)
- mutagenic call [4]: active; positive
- mutagenic call [5]: active; positive

Compound: CC(=O)O[C@H]1[C@H]2O[C@H]2C2=CC(=O)[C@]3(C[C@]2(C)[C@H]1C)O[C@]3(C)C=O
- mutagenic call (Species/Cell Type: Bacillus subtilis (H17 vs M45), Assay Type: Rec-assay, spot test, DNA effects (bacterial DNA repair), Assay Code: REW+, Evaluation Type: Evaluation A (Pre-1980)): active; positive
- mutagenic call (Species/Cell Type: Neurospora crassa, Assay Type: Reverse gene mutation, Assay Code: NER+, Evaluation Type: Evaluation A (Pre-1980)): active; positive
- mutagenic call (Species/Cell Type: Nonhuman, Assay Type: Sister-chromatid exchange (SCE) in vitro, Assay Code: SC2T, Evaluation Type: Evaluation B (Post-1980)): no conclusion
- mutagenic call (Species/Cell Type: Saccharomyces cerevisiae, Assay Type: Mitotic recombination or gene conversion, Assay Code: YEC+/-*, Activation: With metabolic activation, Evaluation Type: Evaluation A (Pre-1980)): inactive; positive without activation, negative with activation
- mutagenic call (Species/Cell Type: Saccharomyces cerevisiae, Assay Type: Mitotic recombination or gene conversion, Assay Code: YEH+, Evaluation Type: Evaluation A (Pre-1980)): active; positive
- mutagenic call [2]: active; positive
- mutagenic call [6]: no conclusion

Compound: COC(=O)COc1ccc(Br)cc1CCl (tested in a mixture with another compound)
- mutagenic call [2]: active; positive

Compound: COc1cc2c(c3oc(=O)c4c(c13)CCOC4=O)[C@@H]1CCO[C@@H]1O2
- mutagenic call (Species/Cell Type: Bacillus subtilis (H17 vs M45), Assay Type: Rec-assay, spot test, DNA effects (bacterial DNA repair), Assay Code: REW-, Evaluation Type: Evaluation A (Pre-1980)): inactive; negative
- mutagenic call (Species/Cell Type: Chinese hamster lung (V79) cells, Assay Type: Forward gene mutation at the HPRT or ouabain locus, Assay Code: V79-*, Activation: With metabolic activation, Evaluation Type: Evaluation A (Pre-1980)): inactive; negative
- mutagenic call (Species/Cell Type: Human diploid fibroblasts, Assay Type: Unscheduled DNA synthesis (UDS) in vitro, DNA effects, Assay Code: UDH-*, Activation: With metabolic activation, Evaluation Type: Evaluation A (Pre-1980)): inactive; negative
- mutagenic call (Species/Cell Type: Nonhuman, Assay Type: Sister-chromatid exchange (SCE) in vitro, Assay Code: SC2+D*, Activation: With metabolic activation, Dose Response: With dose response, Evaluation Type: Evaluation B (Post-1980)): active; positive
- mutagenic call (Species/Cell Type: Rat primary hepatocytes, Assay Type: Unscheduled DNA synthesis (UDS) in vitro, DNA effects, Assay Code: UDP-, Evaluation Type: Evaluation A (Pre-1980)): inactive; negative
- mutagenic call [6]: no conclusion

Compound: CS(=O)(=O)OCCCCOS(C)(=O)=O
- mutagenic call [1]: active; positive
- mutagenic call (Species/Cell Type: Chinese hamster ovary (CHO) cells, Assay Type: Forward gene mutation at the HPRT locus, Assay Code: CHO+, Evaluation Type: Evaluation B (Post-1980)): active; positive
- mutagenic call (Species/Cell Type: Drosophila melanogaster, Assay Type: Sex-linked recessive lethal gene mutation, Assay Code: SRL+, Evaluation Type: Evaluation A (Pre-1980)): active; positive
- mutagenic call [4]: active; positive
- mutagenic call (Species/Cell Type: Hordeum vulgare (barley), Assay Type: Chromosome aberrations, Assay Code: HOC+D, Dose Response: With dose response, Evaluation Type: Evaluation A (Pre-1980)): active; positive
- mutagenic call (Species/Cell Type: Human lymphocytes or leukocytes, Assay Type: Chromosome aberrations in vitro, Assay Code: CY7+D, Dose Response: With dose response, Evaluation Type: Evaluation A (Pre-1980)): active; positive
- mutagenic call (Species/Cell Type: Human lymphocytes, Assay Type: Sister-chromatid exchange (SCE) in vitro, Assay Code: SCL+D, Dose Response: With dose response, Evaluation Type: Evaluation A (Pre-1980)): active; positive
- mutagenic call [7]: active; positive
- mutagenic call (Species/Cell Type: Human, Assay Type: Sister-chromatid exchange (SCE) in vitro, Assay Code: SC1+D, Dose Response: With dose response, Evaluation Type: Evaluation A (Pre-1980)): active; positive
- mutagenic call (Species/Cell Type: Mammalian germ cells, Sex: Male, Assay Type: Chromosome aberrations in vivo, Assay Code: CY9T, Evaluation Type: Evaluation A (Pre-1980)): no conclusion
- mutagenic call (Species/Cell Type: Mammalian polychromatic erythrocytes, Assay Type: Micronucleus test, chromosome aberrations, Assay Code: MNT+, Evaluation Type: Evaluation B (Post-1980)): active; positive
- mutagenic call (Species/Cell Type: Mammalian polychromatic erythrocytes, Assay Type: Micronucleus test, chromosome aberrations, Assay Code: MNTT, Evaluation Type: Evaluation A (Pre-1980)): no conclusion
- mutagenic call (Species/Cell Type: Mouse lymphoma (L5178Y) cells, Assay Type: Forward gene mutation at the thymidine kinase (TK) locus, chromosome aberrations, Assay Code: L51+, Evaluation Type: Evaluation A (Pre-1980)): active; positive
- mutagenic call (Species/Cell Type: Mouse, Sex: Male, Assay Type: Sperm morphology, Assay Code: SPI+, Evaluation Type: Evaluation A (Pre-1980)): active; positive
- mutagenic call (Species/Cell Type: Neurospora crassa, Assay Type: Forward gene mutation, Assay Code: NEF+, Evaluation Type: Evaluation A (Pre-1980)): active; positive
- mutagenic call (Species/Cell Type: Nonhuman bone marrow, Assay Type: Chromosome aberrations, in vivo, Assay Code: CY#+D, Dose Response: With dose response, Evaluation Type: Evaluation A (Pre-1980)): active; positive
- call (Species/Cell Type: Nonhuman, Assay Code: CCGT, Evaluation Type: Evaluation A (Pre-1980)): no conclusion
- mutagenic call [8]: active; positive
- mutagenic call (Species/Cell Type: Rabbit, Sex: Male, Assay Type: Sperm morphology, Assay Code: SPR+, Evaluation Type: Evaluation A (Pre-1980)): active; positive
- mutagenic call (Species/Cell Type: Rodents, Sex: Male, Assay Type: Dominant lethal test, Assay Code: DLT+, Evaluation Type: Evaluation A (Pre-1980)): active; positive

Compound: CCNNCC
- call [3]: active; positive

Compound: O=C1OC(=O)c2ccccc21
- call (Species/Cell Type: Nonhuman, Assay Code: CCG-, Evaluation Type: Evaluation A (Pre-1980)): inactive; negative

Compound: Cc1ccc(S(=O)(=O)NCl)cc1
- mutagenic call (Species/Cell Type: Mammalian polychromatic erythrocytes, Assay Type: Micronucleus test, chromosome aberrations, Assay Code: MNTT, Evaluation Type: Evaluation B (Post-1980)): no conclusion

Compound: Cc1ccc2c(ccc3c4c(ccc32)C(=O)CC4)c1
- mutagenic call [6]: no conclusion

Compound: NC(N)=S
- mutagenic call (Species/Cell Type: Allium cepa, Assay Type: Chromosome aberrations, Assay Code: ALC-, Evaluation Type: Evaluation A (Pre-1980)): inactive; negative
- mutagenic call (Species/Cell Type: Escherichia coli polA (W3110 vs P3478), Assay Type: Rec-assay, DNA effects (bacterial DNA repair), Assay Code: RE2-, Evaluation Type: Evaluation A (Pre-1980)): inactive; negative
- mutagenic call (Species/Cell Type: Escherichia coli polA (W3119 vs P3478), Assay Type: Rec-assay, DNA effects (bacterial DNA repair), Assay Code: RE1T, Evaluation Type: Evaluation A (Pre-1980)): no conclusion
- mutagenic call (Species/Cell Type: Fischer rat embryo (RLV/1706) cells, Assay Type: Cell transformation, viral enhanced, Assay Code: CTR+, Evaluation Type: Evaluation A (Pre-1980)): active; positive
- mutagenic call (Species/Cell Type: Fischer rat embryo (SA7/RE) cells, Assay Type: Cell transformation, viral enhanced, Assay Code: CTA+, Evaluation Type: Evaluation A (Pre-1980)): active; positive
- mutagenic call (Species/Cell Type: Mouse, Sex: Male, Assay Type: Sperm morphology, Assay Code: SPI-, Evaluation Type: Evaluation A (Pre-1980)): inactive; negative
- call [3]: active; positive
- mutagenic call [8]: active; positive
- mutagenic call [9]: inactive; negative
- mutagenic call (Species/Cell Type: Salmonella typhimurium (one or more of the five standard strains: TA98, TA100, TA1535, TA1537, and TA1538), Assay Type: Histidine reverse gene mutation, Ames assay, Assay Code: SAL-, Evaluation Type: Evaluation A (Pre-1980)): inactive; negative
- mutagenic call (Species/Cell Type: Salmonella typhimurium, Assay Type: Forward and reverse gene mutation, host-mediated assay, Assay Code: HMA+, Evaluation Type: Evaluation A (Pre-1980)): active; positive
- mutagenic call (Species/Cell Type: Syrian hamster embryo (SA7/SHE) cells, Assay Type: Cell transformation, viral enhanced, Assay Code: CT7-, Evaluation Type: Evaluation A (Pre-1980)): inactive; negative
- mutagenic call (Species/Cell Type: Syrian hamster embryo (SHE) cells, Assay Type: Cell transformation, clonal assay, Assay Code: CTC+, Evaluation Type: Evaluation A (Pre-1980)): active; positive

Compound: O=[N+]([O-])c1ccc(SSc2ccc([N+](=O)[O-])cc2)cc1
- mutagenic call [5]: active; positive

Compound: O[C@@H]1c2cccc3ccc4cc5ccccc5c(c4c23)[C@@H]1O
- mutagenic call (Species/Cell Type: Chinese hamster lung (V79) cells, Assay Type: Forward gene mutation at the HPRT or ouabain locus, Assay Code: V79-, Evaluation Type: Evaluation A (Pre-1980)): inactive; negative
- mutagenic call [6]: no conclusion

Compound: CC(C(=O)O)c1cccc(C(=O)c2ccccc2)c1 (configuration not stated)
- mutagenic call [7]: active; positive

Compound: Clc1cc2oc3cc(Cl)c(Cl)cc3c2cc1Cl
- mutagenic call (Species/Cell Type: Saccharomyces cerevisiae, Assay Type: Forward gene mutation, Assay Code: YEF-, Evaluation Type: Evaluation A (Pre-1980)): inactive; negative
- mutagenic call (Species/Cell Type: Saccharomyces cerevisiae, Assay Type: Mitotic recombination or gene conversion, Assay Code: YEC-, Evaluation Type: Evaluation A (Pre-1980)): inactive; negative
- mutagenic call [9]: inactive; negative

Compound: O=C1NC(c2ccc([N+](=O)[O-])s2)Nc2ccccc21 (configuration not stated)
- mutagenic call [5]: active; positive
